Here are results for three molecules from patent US20120316342A1, “THERAPEUTIC AGENT FOR HEPATITIS C” (priority 2010, published 2012).

Common to all, as to type: cell-based
A short description of data set [1]: Cytotoxicity in subgenomic replicon cells (GAPDH mRNA, real-time RT-PCR). Particulars: human, #50-1 (subgenomic HCV replicon) cells, GAPDH RNA level. On the procedure:
(§1) The 70% confluent #50-1 (subgenomic replion) cells or NNC #2 (full-length replicon) cells (Ishii et al., J. Virol., 2006, vol. 80, pp. 4510-4520) were dispersed in a culture bottle with the aid of trypsin, and the resulting dispersion was resuspended in a high-glucose Dulbecco's modified Eagle medium (DMEM) containing 10% FCS and 1 mg/ml G418 (Sigma) (see FIGS. 1 and 2). The cell suspension adjusted at 5×10^4 cells/ml with the use thereof was added to wells of a 96-well culture plate at 100 μl/well (the final cell density in each well: […]), and culture was conducted at 37° C. Supernatants of culture media were removed from wells of the plate on the following day, 200 μl each of the solutions of test compounds appropriately diluted with a G418-free culture solution were added, and culture was further continued. Samples were prepared from cells in each well 3 days later with the use of the TaqMan® Gene Expression Cell-to-CT® (Applied Biosystems). Reverse transcription was carried out in accordance with the protocols for the ABI 7500 PCR systems (Applied Biosystems) at 37° C. for 60 minutes, 95° C. for 5 minutes, and retained at 4° C. Real-time PCR was carried out in accordance with the protocols for the ABI 7500 real-time PCR systems (Applied Biosystems) at 50° C. for 2 minutes, 95° C. for 10 minutes, 40 cycles at 95° C. for 15 seconds, and 60° C. for 1 minute.
(§2) In accordance with the method mentioned above, the level of the HCV genomic RNA and, as the internal standard, the level of mRNA of glyceraldehyde-3-phosphate dehydrogenase (GAPDH) (a house keeping gene of the host cells) were assayed, and a percentage (%) relative to the level of RNA of a control group to which the test compound was not administered was determined. The dose-response relationship of the test compound was analyzed based on the measured level of the HCV genomic RNA to determine EC50, and the dose-response relationship of the test compound was analyzed based on the measured level of GAPDH RNA to determine CC50. The term “EC50” and “CC50” used herein refers to 50% effective concentration (μM) and 50% cytotoxic concentration (μM), respectively.
On the technique in general: A replicon is a self-replicating genome or part of one, used to study replication in cells.

The subject of data set [2] is NNC #2 (full-length replicon) cells. Description: Anti-HCV activity using full-length replicon cells (HCV genomic RNA, real-time RT-PCR). Particulars: for EC50: HCV genomic RNA level, 3 days. On the procedure:
as §1, §2

A short description of data set [3]: Cytotoxicity in full-length replicon cells (GAPDH mRNA, real-time RT-PCR). The following applies: human, NNC #2 (full-length HCV replicon) cells, GAPDH RNA level. The procedure: (§3) The 70% confluent #50-1 (subgenomic replion) cells or NNC #2 (full-length replicon) cells (Ishii et al., J. Virol., 2006, vol. 80, pp. 4510-4520) were dispersed in a culture bottle with the aid of trypsin, and the resulting dispersion was resuspended in a high-glucose Dulbecco's modified Eagle medium (DMEM) containing 10% FCS and 1 mg/ml G418 (Sigma) (see FIGS. 1 and 2). The cell suspension adjusted at 5×10^4 cells/ml with the use thereof was added to wells of a 96-well culture plate at 100 μl/well (the final cell density in each well: […]), and culture was conducted at 37° C. […]
(§4) In accordance with the method mentioned above, the level of the HCV genomic RNA and, as the internal standard, the level of mRNA of glyceraldehyde-3-phosphate dehydrogenase (GAPDH) (a house keeping gene of the host cells) were assayed, and a percentage (%) relative to the level of RNA of a control group to which the test compound was not administered was determined. The dose-response relationship of the test compound was analyzed based on the measured level of the HCV genomic RNA to determine EC50, and the dose-response relationship of the test compound was analyzed based on the measured level of GAPDH RNA to determine CC50. […]

The test system of data set [4] is #50-1 (subgenomic replion) cells. Description: Anti-HCV activity using subgenomic replicon cells (HCV genomic RNA, real-time RT-PCR). Particulars: HCV genomic RNA level, 3 days. On the procedure:
as §1, §2

Data set [5] concerns Subgenomic HCV RNA replicon cells (LucNeo#2) having a luciferase gene. Nature of the data set: Anti-HCV activity using replicon cells (luciferase assay). The following applies: Hepatitis C virus, 72 h. The procedure:
Subgenomic HCV RNA replicon cells (LucNeo#2, Goto et al., Biochem. Biophys. Res. Commun., 2006, vol. 343, pp. 879-884) having a luciferase gene were suspended in a Dulbecco's modified Eagle medium (DMEM) containing 10% FBS and 1 mg/ml G418 (Sigma). The cells were incubated for 24 hours and then cultured in G418-free fresh media each containing test compounds at various concentrations for 3 days. In order to perform luciferase assays, the cells were washed with PBS and treated with a lysate for 10 minutes with intermittent agitation. A cell lysate (25 μl) was transferred to a white microtiter plate. Luciferase assay reagents (100 μl, Promega, Tokyo) were added to each well and the luciferase activity was measured with a luminometer.
(§5) Based on the luciferase assay results, the HCV genomic RNA level was measured, and a percentage (%) relative to the level of RNA of a control group to which the test compound was not administered was determined. Based on the results of tetrazolium staining, cell survival rates (%) of the group to which the test compound had been administered and of a control group were determined. The dose-response relationship of the test compound was analyzed based on the results of quantitative luciferase assays to determine EC50(μM), and the dose-response relationship of the test compound was analyzed based on the results of tetrazolium staining to determine CC50.

Data set [6] is described as follows: Cytotoxicity (cell survival rate) by tetrazolium staining in luciferase replicon cells. The following applies: human, subgenomic HCV RNA replicon cells (LucNeo#2), LucNeo#2 subgenomic replicon cells. The procedure:
A tetrazolium staining solution (10 μl, Seikagaku Corporation, Tokyo) was added to each well in order to examine cytotoxicity (a cell survival rate). After the cells were incubated for 1 hour, the absorbance at the characteristic absorption wavelength (450 nm) was measured with the use of a microplate reader.
as §5

Data set [7] concerns #50-1 (subgenomic replion) cells. Description: Cytotoxicity in subgenomic replicon cells (GAPDH mRNA, real-time RT-PCR). The following applies: GAPDH RNA level, 3 days. The procedure: as §1, §2
For data set [8], the system named is NNC #2 (full-length replicon) cells. Nature of the data set: Cytotoxicity in full-length replicon cells (GAPDH mRNA, real-time RT-PCR). The following applies: GAPDH RNA level, 3 days. The procedure: as §3, §4

As a reminder, the CC50 is the concentration giving 50% cytotoxicity. As a reminder, the EC50 is the concentration at which the effect is half-maximal. High values mean lower potency in that assay, low ones higher potency in that assay.

Regarding `CCCCn1c(=O)c2ccccc2c2cc(C(C)C)ccc21` [PN-iPr, 5-butyl-2-isopropylphenanthridin-6(5H)-one], the values for the CC50 at 3 days in data set [1] and in data set [3] were 20.5 µM and 27.7 µM, respectively. For the same molecule, the EC50 was determined as 16.4 µM in data set [2] (Hepatitis C virus, NNC2, 72 h) and 4 µM in data set [4] (Hepatitis C virus, 72 h).

For the molecule `CCCCn1c(=O)c2ccccc2c2c(OC)c(C(O)(C(F)(F)F)C(F)(F)F)ccc21` [KZ34, 5-butyl-2-(1′,1′,1′,3′,3′,3′-hexafluoro-2′-hydroxypropan-2-yl)-1-methoxy-phenanthridin-6(5H)-one], the midpoint of the response in data set [5], the EC50, lay at 7.2 µM. The molecule further yielded a half-maximal cytotoxic concentration (CC50) at 3 days in data set [6] of 25.3 µM.

For `CCCCn1c(=O)c2ccccc2c2cc(C(O)(C(F)(F)F)C(F)(F)F)ccc21` [AA-24, 2-(1′,1′,1′,3′,3′,3′-hexafluoro-2′-hydroxypropan-2′-yl)-5-butyl-phenanthridin-6(5H)-one], the results for the CC50 in data set [7] and in data set [8] were 20.5 µM and 11.9 µM, respectively. The “anti-HCV activity (in words)” value in data set [2] (FIGS. 3 to 6) is recorded as “high degree of anti-HCV activity”. The EC50 in data set [2] was determined as 2.8 µM; in data set [4] it was 4 µM.
